The values that follow are results of earlier work, collected in patent publication US8648203B2 (priority 2005, dated 2014).

The subject of the series is benzimidazole and/or dicarboximide resistant strains of B. cinerea.

Turning to `O=[N+]([O-])c1cc(C(F)(F)F)c(Cl)c([N+](=O)[O-])c1Nc1ncc(C(F)(F)F)cc1Cl` [fluazinam, 3-chloro-N-(3-chloro-5-trifluoromethyl-2-pyridyl)-α,α,α-trifluoro-2,6-dinitro-p-toluidine], the “activity against resistant strains of B. cinerea” value is on record as “good activity”.
